Results: ChEMBL document CHEMBL4229569, “Structure-Based Design of 1-Heteroaryl-1,3-propanediamine Derivatives as a Novel Series of CC-Chemokine Receptor 5 Antagonists” (J Med Chem, 2018)

Tests used:
[1] = target: C-C chemokine receptor type 5 (Homo sapiens, UniProt P51681); test: Antagonist activity at CCR5 (unknown origin) expressed in HEK293 cells co-expressing Galpha16 assessed as inhibition of RANTES-induced calcium flux preincubated for 10 mins followed by RANTES addition by fluo-4AM-based fluorescence assay; assay type: functional, cell-based
[2] = Cytotoxicity against human TZM-bl cells after 48 hrs by MTT assay; assay type: cell-based
in vitro = conditions: human, TZM-bl cells
Description: Therapeutic index, ratio of CC50 for human TZM-bl cells to EC50 for CCR5-dependent HIV1 SF162 infected in human TZM-bl cells

[3] = system: Human immunodeficiency virus 1; test: microbe, parasite or virus in culture; conditions: Human immunodeficiency virus 1, SF162, TZM-bl, 48 h
Description: Antiviral activity against CCR5-dependent HIV1 SF162 infected in human TZM-bl cells assessed as reduction in virus infection measured after 48 hrs post infection by luciferase reporter gene assay

Chain of C-C chemokine receptor type 5 (P51681 whole entry): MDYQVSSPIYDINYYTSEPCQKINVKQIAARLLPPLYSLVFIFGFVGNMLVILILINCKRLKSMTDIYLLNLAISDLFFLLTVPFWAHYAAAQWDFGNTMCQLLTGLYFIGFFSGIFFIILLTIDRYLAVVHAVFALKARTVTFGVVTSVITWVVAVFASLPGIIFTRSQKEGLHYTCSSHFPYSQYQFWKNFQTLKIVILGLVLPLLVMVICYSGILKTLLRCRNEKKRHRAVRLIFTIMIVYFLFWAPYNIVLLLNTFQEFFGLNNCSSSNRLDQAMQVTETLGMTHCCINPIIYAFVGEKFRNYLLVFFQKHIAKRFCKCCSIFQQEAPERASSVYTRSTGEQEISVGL

## Cc1csc([C@H](CCN2[C@@H]3CC[C@H]2C[C@H](n2c(C)nnc2C(C)C)C3)NC(=O)C2CCC(F)(F)CC2)c1
[1]
  IC50: 6.8 nM

## Cc1nnc(C(C)C)n1[C@@H]1C[C@H]2CC[C@@H](C1)N2CC[C@H](NC(=O)C1CCC(F)CC1)c1cccs1 (some centres undefined)
[1]
  IC50: 3 nM

## Cc1nnc(C(C)C)n1[C@@H]1C[C@H]2CC[C@@H](C1)N2CC[C@H](NC(=O)C1CC(=O)N(C)C1)c1cccs1 (some centres undefined)
[1]
  IC50: 5.2 nM

## Cc1nnc(C(C)C)n1[C@@H]1C[C@H]2CC[C@@H](C1)N2CC[C@H](NC(=O)C1CCC(F)(F)CC1)c1csc2ccccc12
[1]
  IC50: 9.7 nM
[2]
  CC50 at 48 h: 96.1 µM
In vitro
  selectivity ratio: 119
[3]
  IC50: 810 nM

## O=C(N[C@@H](CCN1[C@@H]2CC[C@H]1C[C@H](n1c(C3CC3)nnc1C(F)(F)F)C2)c1ccsc1)C1CCC(F)(F)CC1
[1]
  IC50: 2.9 nM

## CC(C)c1nnc(C(F)(F)F)n1[C@@H]1C[C@H]2CC[C@@H](C1)N2CC[C@H](NC(=O)C1CCC(F)(F)CC1)c1cccs1
[1]
  IC50: 4.7 nM

## CCc1nnc(C)n1[C@@H]1C[C@H]2CC[C@@H](C1)N2CC[C@H](NC(=O)C1CCC(F)(F)CC1)c1ccsc1
[1]
  IC50: 2.8 nM

## Cc1nnc(C(C)C)n1[C@@H]1C[C@H]2CC[C@@H](C1)N2CC[C@H](NC(=O)C1CCC(F)(F)CC1)c1cscn1
[1]
  IC50: 27.1 nM

## Cc1nnc(C(C)C)n1[C@@H]1C[C@H]2CC[C@@H](C1)N2CC[C@H](NC(=O)C1CCC(F)(F)CC1)c1ccc(F)s1
[1]
  IC50: 15.8 nM
[2]
  CC50 at 48 h: > 200 µM
In vitro
  selectivity ratio: > 385
[3]
  IC50: 520 nM

## Cc1cscc1[C@H](CCN1[C@@H]2CC[C@H]1C[C@H](n1c(C)nnc1C(C)C)C2)NC(=O)C1CCC(F)(F)CC1
[1]
  IC50: 8.1 nM

## Cc1nnc(C(C)C)n1[C@@H]1C[C@H]2CC[C@@H](C1)N2CC[C@H](NC(=O)C(C)(C)C(F)(F)F)c1cccs1
[1]
  IC50: 5.4 nM

## Cc1nnc(C(C)C)n1[C@@H]1C[C@H]2CC[C@@H](C1)N2CC[C@H](NC(=O)C1CCC(=O)C1)c1cccs1 (some centres undefined)
[1]
  IC50: 2.9 nM

## Cc1ccc([C@H](CCN2[C@@H]3CC[C@H]2C[C@H](n2c(C)nnc2C(C)C)C3)NC(=O)C2CCCC2)s1
[1]
  IC50: 2.6 nM
